Laboratory results reported in the supplement of paper PMC13380429.

What was measured:
Conditions in all cases: 72 h
[1] = tested on: Caco-2; test: cell viability relative to DMSO; higher = less toxic
[2] = tested on: HepG2; test: as above
[3] = tested on: U2OS; test: as above
[4] = tested on: Vero E6; test: as above
[5] = tested on: Caco-2; test: relative viability EC50 (midpoint between 100% and the lowest measured viability); higher = less toxic
[6] = tested on: HepG2; test: as above
[7] = tested on: U2OS; test: as above
[8] = tested on: Vero E6; test: as above
[9] = tested on: Caco-2; test: drug sensitivity score (DSS) for viability; higher = more toxic; extreme values may be limits of the assay
[10] = tested on: HepG2; test: as above
[11] = tested on: U2OS; test: as above
[12] = tested on: Vero E6; test: as above
[13] = tested on: Calu-3; test: cell viability relative to DMSO; higher = less toxic
[14] = tested on: Calu-3; test: drug sensitivity score (DSS) for viability; higher = more toxic; extreme values may be limits of the assay

Row | SMILES | cell viability ([1]; 1 nM) [%] | cell viability ([1]; 10 nM) [%] | cell viability ([1]; 100 nM) [%] | cell viability ([1]; 1000 nM) [%] | cell viability ([1]; 10000 nM) [%] | cell viability ([2]; 1 nM) [%] | cell viability ([2]; 10 nM) [%] | cell viability ([2]; 100 nM) [%] | cell viability ([2]; 1000 nM) [%] | cell viability ([2]; 10000 nM) [%] | cell viability ([3]; 1 nM) [%] | cell viability ([3]; 10 nM) [%] | cell viability ([3]; 100 nM) [%] | cell viability ([3]; 1000 nM) [%] | cell viability ([3]; 10000 nM) [%] | cell viability ([4]; 1 nM) [%] | cell viability ([4]; 10 nM) [%] | cell viability ([4]; 100 nM) [%] | cell viability ([4]; 1000 nM) [%] | cell viability ([4]; 10000 nM) [%] | relative viability EC50 [5] [µM] | relative viability EC50 [6] [µM] | relative viability EC50 [7] [µM] | relative viability EC50 [8] [µM] | drug sensitivity score [9] | drug sensitivity score [10] | drug sensitivity score [11] | drug sensitivity score [12] | cell viability ([13]; 1 nM) [%] | cell viability ([13]; 10 nM) [%] | cell viability ([13]; 100 nM) [%] | cell viability ([13]; 1000 nM) [%] | cell viability ([13]; 10000 nM) [%] | drug sensitivity score [14]
1 | CCC(=O)OCC(=O)[C@@]1(OC(=O)CC)[C@@H](C)C[C@H]2[C@@H]3CCC4=CC(=O)C=C[C@]4(C)[C@@]3(F)[C@@H](O)C[C@@]21C [BETAMETHASONE 17,21-DIPROPIONATE] | 99 | 97.8 | 99.9 | 111 | 98.2 | 103 | 88.3 | 101 | 95.5 | 110 | 91.6 | 96.8 | 93.7 | 97 | 102 | 103 | 95.2 | 91.2 | 92.9 | 99.1 | > 10 | > 10 | > 10 | > 10 | 0 | 0 | 0 | 0 |  |  |  |  |  | 
2 | COC(=O)c1cc2c(C(F)(F)F)cc(-c3ccccc3)cc2n1O [NHI-2] | 106 | 90.2 | 102 | 90.1 | 91.2 | 95.1 | 103 | 110 | 98.2 | 99.3 | 103 | 98.1 | 102 | 97.1 | 101 | 104 | 104 | 98.8 | 101 | 97.5 | > 10 | > 10 | > 10 | > 10 | 0 | 0 | 0 | 0 |  |  |  |  |  | 
3 | COc1cc(N2CCC(N3CCN(C)CC3)CC2)ccc1Nc1ncc(Cl)c(Nc2ccccc2S(=O)(=O)C(C)C)n1 [NVP-TAE684] | 103 | 104 | 101 | 87.4 | 53.5 | 91.7 | 96.1 | 103 | 63.9 | 34.2 | 106 | 97.9 | 102 | 91.2 | 22.9 | 100 | 97.2 | 93.5 | 89.5 | 42.6 |  | 0.926 | 2.22 | 1.81 | 4.3 | 8.1 | 5.7 | 4.9 | 97.2 | 94.5 | 90.2 | 86.6 | 61.5 | 3.4
4 | CC(=O)c1cnc2ccc(-c3cc(Cl)c(O)c(Cl)c3)nc2c1N[C@H]1CC[C@H](CN(C)C)CC1 [OTS167] | 98.5 | 98.4 | 41.1 | 34.8 | 12 | 108 | 84.7 | 11.4 | 5.1 | 3.9 | 97.6 | 86.7 | 10.7 | 5.5 | 0 | 96.4 | 100 | 6.3 | 11.7 | 2.6 | 0.0765 | 0.0253 | 0.0295 | 0.0351 | 21.5 | 30.3 | 30.5 | 29.2 |  |  |  |  |  | 
5 | CSC[C@H](N)C(=O)O [S-methylcysteine] | 79.7 | 105 | 86.5 | 101 | 97.3 | 89.3 | 100 | 95.6 | 92.3 | 99.3 | 101 | 98.7 | 104 | 98.1 | 102 | 92.8 | 93.6 | 97.1 | 96.3 | 105 | > 10 | > 10 | > 10 | > 10 | 0 | 0 | 0 | 0 |  |  |  |  |  | 
6 | NC(=O)CN1C=CCC(C(N)=O)=C1 [caricotamide] | 113 | 103 | 103 | 97.7 | 104 | 93.2 | 103 | 104 | 116 | 106 |  |  |  |  |  | 101 | 95.4 | 99.5 | 99 | 101 | > 10 | > 10 |  | > 10 | 0 | 0 |  | 0 |  |  |  |  |  | 
